Source: patent publication US12491188B2, “Small molecule PARG inhibitors and methods of use thereof” (Board of Regents, The University of Texas System, priority 2019, dated 2025)
Values joined by “and” are separate entries in the source; they are usually repeats but may differ in a detail not shown here. Identical values can stand only once. Like-named read-outs stand apart in the source and are kept apart here.

Key:
rat PARG = rat PARG (Rattus norvegicus (Rat), UniProt Q9QYM2); assay: High-throughput screening with the TR-FRET PAR turnover assay; type: biochemical; conditions: 6.7 μM compound; 12.5 nM and 25 nM rat PARG
Chain of rat PARG (Q9QYM2 385-972): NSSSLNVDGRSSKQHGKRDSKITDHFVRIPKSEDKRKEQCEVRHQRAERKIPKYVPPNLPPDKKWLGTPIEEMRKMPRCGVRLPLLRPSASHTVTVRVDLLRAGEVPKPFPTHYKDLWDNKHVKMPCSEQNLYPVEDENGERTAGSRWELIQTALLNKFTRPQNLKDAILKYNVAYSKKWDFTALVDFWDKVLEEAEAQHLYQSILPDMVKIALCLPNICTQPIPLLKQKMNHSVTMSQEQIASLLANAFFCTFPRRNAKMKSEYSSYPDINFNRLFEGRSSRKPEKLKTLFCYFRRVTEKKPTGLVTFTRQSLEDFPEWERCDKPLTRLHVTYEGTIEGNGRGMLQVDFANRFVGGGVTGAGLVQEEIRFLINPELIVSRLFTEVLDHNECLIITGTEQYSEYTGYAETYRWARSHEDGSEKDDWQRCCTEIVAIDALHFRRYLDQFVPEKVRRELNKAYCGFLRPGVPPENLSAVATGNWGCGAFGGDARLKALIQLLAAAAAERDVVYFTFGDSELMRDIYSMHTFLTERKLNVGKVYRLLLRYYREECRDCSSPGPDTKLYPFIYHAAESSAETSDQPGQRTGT
Protocol: The NCI Diversity Set II library (1,990 compounds) was screened against rat PARG then human PARG was used to validate and optimize PARG inhibitors. The accuracy of the screen was determined by the calculated Z-scores of control reactions, which were between 0.6 and 0.8 throughout the plates, indicative of high reproducibility (FIG. 2a). […] The rate of TR-FRET signal loss in the presence of each candidate inhibitor was compared to that of control reactions containing DMSO only (FIG. 2b). Initially, 104 compounds were selected that inhibited PARG enzymatic activity at both enzyme concentrations. Thirty-nine of these compounds were discarded as they altered fluorescence intensity of donor or acceptor (F520 and F495) by >40% at the first time point. […] For the selected compounds, gel-based assays were performed to directly monitor inhibition of PARP1 dePARylation by PARG (FIG. 2c).
TR-FRET PAR turnover assay. For a high-throughput screening (HTS) of PARG inhibitors, a high-throughput PARG activity assay was developed using the TR-FRET system. Briefly, the fluorescein molecule (FITC) was enzymatically incorporated into PARP1 in a reaction containing PARP1C (2 μM), the PARP1 DBD (2 μM), a 24 mer nicked DNA oligo (2 μM), and a mixture of unlabeled NAD^+ (Sigma) and FITC-NAD^+ (Trevigen) substrates (total NAD+concentration of 100 μM).
After incubation for 1 hr at 37° C., PARylated PARP1 was desalted using a PD-10 desalting column (GE healthcare) in a buffer containing 25 mM Tris-HCl (pH 7.5), 50 mM NaCl, and 0.01% NP-40 and used as the FRET acceptor. The biotin-tagged BRCT1 domain of XRCC1 (BRCT1, 5 nM) was conjugated with an equimolar concentration of Tb^3+-chelated streptavidin (Life Technologies) in TR-FRET assay buffer (FRET donor). […] The reaction was started by the addition of the FRET pair of FITC-labeled PARP1 (42 nM) and Tb^3+-BRCT1 (5 nM). The TR-FRET signal was subsequently monitored for 60 min.
High-throughput screening of PARG inhibitors. Small molecule inhibitors of PARG were identified by high-throughput screening (HTS) using the TR-FRET PAR turnover assay. Compounds (final concentration of 6.7 μM) from the NCI Diversity Set II library (1,990 compounds) were predispensed into black polystyrene 384-well plates (Corning) using a Hummingbird liquid handler (Digilab). Then, 10 μL of rat PARG^385-972 (12.5 nM and 25 nM) was subsequently dispensed into plates using a multi-drop combi nL reagent dispenser (Thermo Scientific), and incubated with compounds for 1 hr at 4° C. The reaction was initiated by the addition of 20 μl of the premixed FRET pair of FITC-labeled PARP1 (42 nM) and Tb^3+-BRCT1 (5 nM), and the TR-FRET signal was monitored every four minutes for 40 min (11 data points). Hits were selected by visually comparing the rate of the TR-FRET signal decrease in each well to that of negative control reactions containing DMSO (FIG. 1b and see Text for details). The HTS was performed at the High-Throughput Screening Core (HTSC) at Washington University School of Medicine.

PARG = conditions: Falsig et al., 2004; read-out: IC50 of PARG inhibition; cited from earlier work
human PARG = human PARG (Homo sapiens (Human), UniProt Q86W56); assay: Gel-based PARG activity assay; type: biochemical
Chain of human PARG (Q86W56 389-976): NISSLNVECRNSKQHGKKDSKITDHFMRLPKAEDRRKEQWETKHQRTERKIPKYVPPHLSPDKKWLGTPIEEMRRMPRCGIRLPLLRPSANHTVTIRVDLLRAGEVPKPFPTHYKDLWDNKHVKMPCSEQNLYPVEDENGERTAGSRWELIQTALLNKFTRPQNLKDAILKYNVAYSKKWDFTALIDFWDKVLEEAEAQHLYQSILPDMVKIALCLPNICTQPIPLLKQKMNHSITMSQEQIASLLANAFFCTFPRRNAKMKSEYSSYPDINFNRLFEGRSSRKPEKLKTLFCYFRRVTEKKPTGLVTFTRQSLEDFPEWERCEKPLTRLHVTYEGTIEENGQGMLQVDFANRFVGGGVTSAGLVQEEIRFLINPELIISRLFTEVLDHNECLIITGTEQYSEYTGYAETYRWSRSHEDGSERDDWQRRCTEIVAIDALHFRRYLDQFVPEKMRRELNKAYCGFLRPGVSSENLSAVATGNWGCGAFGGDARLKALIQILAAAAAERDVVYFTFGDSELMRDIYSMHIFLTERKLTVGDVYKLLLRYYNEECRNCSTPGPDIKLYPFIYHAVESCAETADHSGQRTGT
Protocol: FIGS. 9a & 9b show structure-activity relationships (SAR) of compounds from five main chemotypes. (FIG. 9a) A total of 34 representative HTS hits and commercially available analogues from each chemotype (FIG. 7 and FIG. 29) were analyzed using the gel-based PARG activity assay. This gel-based assay directly monitors the change of PARylation status of PARP1 as a substrate of PARG. […] The reaction was quenched after a 30 min incubation at room temperature by adding SDS-PAGE sample buffer. PARylated PARP1C runs as a smear on SDS-PAGE that is reduced to a single band by PARG treatment. […] (FIG. 9b) Quantification of the dose-response PARG inhibition by JA2-3 using the gel-based PARG activity assay. hPARG (1 nM) was preincubated with increasing concentrations (0.032-1 μM) of JA2-3 for 1 hr at room temperature before PARylated PARP1C (500 nM) was added. The reaction was quenched after a 30 min incubation at room temperature. PARylated PARP1C migrates slower than unmodified PARP1C and was quantified using ImageJ. To determine the IC50 value, the dose-response data were plotted as a function of JA2-3 concentration and fitted to the four-parameter logistic equation using SigmaPlot. The rate of the PARG-dependent signal loss in the TR-FRET PAR turnover assay is not equivalent to the steady-state rate of PAR turnover, because the TR-FRET assay can't detect signal loss until the length of PAR chains become shorter than 7 ADP-ribose units. Therefore, the gel-based PARG activity assay to accurately determine the IC50 values throughout the present disclosure.
Gel-based PARG activity assay. PARP1C (2 μM) is enzymatically auto-modified in a reaction containing the PARP1 DBD (2 μM), a 24 mer nicked DNA oligo (2 μM), and NAD+(300 μM) for 1 hr at 37° C., as described previously (Kim et al., 2012). Human PARG^389-976 (1 nM) was pre-incubated with compounds for 1 hr at room temperature. The reaction was initiated by addition of PARylated PARP1 (final concentration of 500 nM) and quenched after 30 min incubation at room temperature by adding SDS-PAGE sample buffer. The gel was visualized by sypro-ruby staining (Kim et al., 2012) and the retained PARylated PARP1C species were quantified using ImageJ (Schneider et al., 2012).
PARylated PARP1C that migrates slower than unmodified PARP1C was quantified. […] The IC50 values were determined by fitting the dose-response data for each compound to a four-parameter logistic equation using SigmaPlot (Systat Software Inc.).
To test specificity of JA2131, human PARG^389-976 (1 nM) was pre-incubated with JA2131 (5, 10, and 20 μM) in the presence and absence of 0.1% Triton-X 100 or 0.1 mg/ml BSA for 1 hr at room temperature. The reaction was initiated, quenched, visualized, and quantified as described above.

[1] = Table 1, PARG inhibition, read-out: IC50
[2] = hPARG 1 nM, PARylated PARP1C 500 nM
[3] = hPARG 1 nM, PARylated PARP1C 500 nM, read-out: IC50 of PARG inhibition

| Compound | ~100% PARG inhibition at both 12.5 nM and 25 nM (rat PARG) | IC50 (human PARG; [1]) | further results |
| --- | --- | --- | --- |
| Cc1cc(O)c(-c2cc(O)c(C)cc2O)cc1O [Compound 2805] | Yes | – | – |
| CCC(=O)OCN1C(=O)C=CC1=O [Compound 19630] | Yes | – | – |
| Cc1cc(N)c2cc(OCCOc3ccc4nc(C)cc(N)c4c3)ccc2n1 [Compound 22907] | Yes | – | – |
| O=C1C(Cl)=C(Nc2ccc(S(=O)(=O)Nc3ccccn3)cc2)C(=O)c2ccccc21 [Compound 45382] | Yes | – | – |
| O=C1C=CC(=Nc2cccc3c(N=C4C=CC(=O)O4)cccc23)O1 [Compound 69575] | Yes | – | – |
| O=S(=O)(O)c1cc(O)c2c(N=Cc3ccccc3O)cc(S(=O)(=O)O)cc2c1 [Compound 88947] | Yes | – | – |
| O=c1[nH][nH]c(=S)c(=O)[nH]1 [Compound 107684] | Yes | – | – |
| Cc1ccc(C2=C(Cl)C(=O)C(c3ccc(C)cc3)=C(Cl)C2=O)cc1 [Compound 121838] | Yes | – | – |
| O=[N+]([O-])c1ccc(S(=O)(=O)Cc2ccccc2)c2nonc12 [Compound 228148] | Yes | – | – |
| FC(F)(F)c1nc2ccc(SSc3ccc4nc(C(F)(F)F)[nH]c4c3)cc2[nH]1 [Compound 659162] | Yes | – | – |
| O=C(OC[C@H]1O[C@@H](OC(=O)c2cc(O)c(O)c(OC(=O)c3cc(O)c(O)c(O)c3)c2)[C@H](OC(=O)c2cc(O)c(O)c(OC(=O)c3cc(O)c(O)c(O)c3)c2)[C@@H](OC(=O)c2cc(O)c(O)c(OC(=O)c3cc(O)c(O)c(O)c3)c2)[C@@H]1OC(=O)c1cc(O)c(O)c(OC(=O)c2cc(O)c(O)c(O)c2)c1)c1cc(O)c(O)c(OC(=O)c2cc(O)c(O)c(O)c2)c1 [Gallotannin] | – | – | IC50 (PARG): < 5000 nM |
| Cn1c(=O)c2[nH]c(CCCC(=O)O)nc2n(C)c1=O [JA2-2] | – | > 100000 nM | – |
| O=c1[nH]c2[nH]c(=S)[nH]c(=S)c2[nH]1 [JA2-3] | Yes | 100 nM | IC50 of PARG inhibition (human PARG; [2]): sub-micromolar; IC50 (human PARG; [3]): 100 to 1000 nM |
| Cn1c(=S)[nH]c2nc(SCCN3CCCC3)[nH]c2c1=O [JA2-4] | – | 900 nM | IC50 of PARG inhibition (human PARG; [2]): sub-micromolar; IC50 (human PARG; [3]): 100 to 1000 nM and 900 nM |
| Cn1c(=O)c2[nH]c(SCCN3CCOCC3)nc2n(C)c1=S [JA2-5] | Yes | 1000 nM | IC50 of PARG inhibition (human PARG; [2]): sub-micromolar; IC50 (human PARG; [3]): 100 to 1000 nM |
| Cn1c(=O)c2c(ncn2CCCC(=O)O)n(C)c1=O [JA2-9] | – | > 100000 nM | – |
| Cn1c(=O)[nH]c2nc(SCCN3CCOCC3)[nH]c2c1=O [JA2120] | – | 25700 nM | IC50 (human PARG; [3]): 25700 nM |
| Cn1c(=O)c2[nH]c(SCC(=O)OC(C)(C)C)nc2n(C)c1=O [LPF-I-27-1] | – | > 25000 nM | – |
| CCOC(=O)CSc1nc2c([nH]1)c(=O)n(C)c(=O)n2C [LPF-I-35-1] | – | > 25000 nM | – |
| Cn1c(=O)c2[nH]c(SCc3ccccc3)nc2n(C)c1=O [LPF-I-51-1] | – | > 25000 nM | – |
| Cn1c(=O)c2[nH]c(SCc3ccc(F)cc3)nc2n(C)c1=O [LPF-I-53-1] | – | 65000 nM | – |
| Cc1ccc(CSc2nc3c([nH]2)c(=O)n(C)c(=O)n3C)cc1 [LPF-I-64-1] | – | > 25000 nM | – |
| Cn1c(=O)c2[nH]c(SCc3c(Cl)cccc3Cl)nc2n(C)c1=O [LPF-I-68-1] | – | > 25000 nM | – |
| Cn1c(=O)c2[nH]c(SCCN3C(=O)c4ccccc4C3=O)nc2n(C)c1=O [LPF-I-81-1] | – | > 25000 nM | – |
| CCOC(=O)CCSc1nc2c([nH]1)c(=O)n(C)c(=O)n2C [LPF-I-83-1] | – | > 25000 nM | – |
| Cn1c(=S)c2[nH]c(SCCN3CCOCC3)nc2n(C)c1=O [LPF-I-146-1] | – | 400 nM | – |
